Earlier results in patent US20040142847A1, “Detergent tablets with polyurethane coating” (priority 2002, published 2004).
Values after ≈ are worked out from the molar mass of the structure shown. Like-named read-outs stand apart in the source and are kept apart here. Each block holds one compound with its values, some of them ahead of it.

Key:
[1] = 1% strength solution at 25°
[2] = for amount of the anhydrous salt that dissolves in 100 g of water: per 100 g of water
[3] = after heating the solution at 100° C. for two hours
[4] = 20° C., listing of preferred solubilizers
[5] = 20° C., listing of suitable solubilizers
[6] = 25° C., listing of preferred solubilizers

Compound: O=P([O-])([O-])OP(=O)([O-])[O-].[K+].[K+].[K+].[K+] [Potassium diphosphate]
pH of the 1% strength solution [1]: 10.4

Compound: [Cl-].[Cl-].[Zn+2] [Zinc chloride]
solubility in water [2, 4]: 3680 mg/mL | solubility in water [2, 5]: 3680 mg/mL

solubility in water [2, 6]: 788 mg/mL (≈ 6790 mM)
Compound: O=C(O)/C=C\C(=O)O [Maleic acid]

solubility in water [2, 6]: 680 mg/mL (≈ 3770 mM)
Compound: O=C[C@H](O)[C@@H](O)[C@@H](O)[C@H](O)CO [D(+)-Galactose]

Compound: O=C(CO)[C@@H](O)[C@H](O)[C@@H](O)CO [L(−)-sorbose]
solubility in water ([2]; 17° C., listing of preferred solubilizers): 550 mg/mL (≈ 3050 mM)

Compound: [Cl-].[Cs+] [Cesium chloride]
solubility in water [2, 4]: 1800 mg/mL | solubility in water [2, 5]: 1800 mg/mL

Compound: O=C(O)CC(O)C(=O)O (racemic) [DL-Malic acid]
solubility in water ([2]; 26° C., listing of preferred solubilizers): 1440 mg/mL (≈ 10700 mM) | solubility in water ([2]; 26° C., listing of suitable solubilizers): 1440 mg/mL (≈ 10700 mM)

diphosphate produced by hydrolysis [3]: ~15% | orthophosphate produced by hydrolysis [3]: about 8% | amount of the anhydrous salt that dissolves in 100 g of water ([2]; 60°): about 20 g | amount of the anhydrous salt that dissolves in 100 g of water ([2]; 100°): around 32 g | amount of the anhydrous salt that dissolves in 100 g of water ([2]; room temperature): About 17 g
Compound: O=P([O-])([O-])OP(=O)([O-])OP(=O)([O-])[O-].[Na+].[Na+].[Na+].[Na+].[Na+] [pentasodium triphosphate]

Compound: [Cl-].[K+] [Potassium chloride]
solubility in water [2, 4]: 340 mg/mL | solubility in water [2, 5]: 340 mg/mL

Compound: NC(N)=O [Urea]
solubility in water [2, 4]: 1080 mg/mL (≈ 18000 mM) | solubility in water [2, 5]: 1080 mg/mL (≈ 18000 mM)

solubility in water [2, 5]: 1000 mg/mL
Compound: Sodium polyphosphate
